Data reported in ChEMBL document CHEMBL4342446, “Isopimarane Diterpenoids from the Rhizomes of Kaempferia marginata and Their Potential Anti-inflammatory Activities” (J Nat Prod, 2020).
pIC50: −log10 of the molar value.

Assays:
[1] = tested on: RAW264.7; experiment: Anti-inflammatory activity in mouse RAW264.7 cells assessed as inhibition of lipopolysaccharide-induced nitric oxide production; format: functional, cell-based
[2] = tested on: RAW264.7; experiment: Cytotoxicity against mouse RAW264.7 cells; format: cell-based

| Structure (SMILES) | pIC50 [1] | Activity [2] |
| --- | --- | --- |
| C=C[C@]1(C)C=C2C(=O)C[C@H]3C(C)(C)CC[C@H](O)[C@]3(C)[C@H]2CC1 | < 4.30 | – |
| C=C[C@]1(C)C=C2CC[C@H]3C(C)(C)C[C@H](O)[C@H](O)[C@]3(C)[C@H]2CC1 | 4.39 | – |
| C=C[C@]1(C)C=C2CC[C@H]3C(C)(C)CC[C@H](O)[C@]3(C)[C@H]2CC1 | 4.30 | – |
| C=C[C@]1(C)C=C2CC[C@H]3C(C)(C)C[C@H](O)[C@H](OC(C)=O)[C@]3(C)[C@H]2CC1 | < 4.30 | – |
| C=C[C@]1(C)C=C2C[C@@H](O)[C@H]3C(C)(C)C[C@H](O)[C@H](O)[C@]3(C)[C@H]2CC1 | < 4.30 | – |
| C=C[C@]1(C)C=C2C[C@@H](OC(C)=O)[C@H]3C(C)(C)[C@@H](O)CC(=O)[C@]3(C)[C@H]2[C@@H](O)C1 | < 4.30 | – |
| C=C[C@]1(C)C=C2[C@@H](O)C[C@H]3C(C)(C)C[C@H](O)[C@H](O)[C@]3(C)[C@H]2CC1 | < 4.30 | – |
| C=C[C@]1(C)C=C2CC[C@H]3C(C)(C)[C@H](O)C[C@H](O)[C@]3(C)[C@H]2[C@H](O)C1 | 4.55 | Non-Toxic |
| C=C[C@]1(C)C=C2C(=O)C[C@H]3C(C)(C)C[C@H](O)C[C@]3(C)[C@H]2CC1 | < 4.30 | – |
| C=C[C@]1(C)C=C2CC[C@H]3C(C)(C)[C@@H](O)C[C@H](O)[C@]3(C)[C@H]2[C@H](O)C1 | < 4.30 | – |
| C=C[C@]1(C)C=C2CC[C@H]3C(C)(C)CC[C@H](O)[C@]3(C)[C@H]2[C@H](O)C1 | 4.44 | – |
| C=C[C@]1(C)C=C2[C@H](O)C[C@H]3C(C)(C)CC[C@H](O)[C@]3(C)[C@H]2[C@H](O)C1 | < 4.30 | – |
| C[C@@H]1C[C@H]2[C@@H]3CCC4=CC(=O)C=C[C@]4(C)[C@@]3(F)[C@@H](O)C[C@]2(C)[C@@]1(O)C(=O)CO [DEXAMETHASONE] | 5.26 | – |
